In US11739098B2 (BRISTOL-MYERS SQUIBB COMPANY, priority 2017, dated 2023):

Columns and labels:
Format in all cases: cell-based
human TLR7 = biological target: T1, human TLR7 (Homo sapiens, UniProt Q9NYK1); experiment: TLR7 inhibition reporter assay (HEK-Blue cells, SEAP reporter, gardiquimod stimulation); conditions: HEK-Blue cells overexpressing human TLR7, SEAP reporter, gardiquimod 7.5 μM
T1 construct: host or cells: HEK-Blue cells (HEK293-derived reporter line)
T1 sequence (Q9NYK1 27-1049): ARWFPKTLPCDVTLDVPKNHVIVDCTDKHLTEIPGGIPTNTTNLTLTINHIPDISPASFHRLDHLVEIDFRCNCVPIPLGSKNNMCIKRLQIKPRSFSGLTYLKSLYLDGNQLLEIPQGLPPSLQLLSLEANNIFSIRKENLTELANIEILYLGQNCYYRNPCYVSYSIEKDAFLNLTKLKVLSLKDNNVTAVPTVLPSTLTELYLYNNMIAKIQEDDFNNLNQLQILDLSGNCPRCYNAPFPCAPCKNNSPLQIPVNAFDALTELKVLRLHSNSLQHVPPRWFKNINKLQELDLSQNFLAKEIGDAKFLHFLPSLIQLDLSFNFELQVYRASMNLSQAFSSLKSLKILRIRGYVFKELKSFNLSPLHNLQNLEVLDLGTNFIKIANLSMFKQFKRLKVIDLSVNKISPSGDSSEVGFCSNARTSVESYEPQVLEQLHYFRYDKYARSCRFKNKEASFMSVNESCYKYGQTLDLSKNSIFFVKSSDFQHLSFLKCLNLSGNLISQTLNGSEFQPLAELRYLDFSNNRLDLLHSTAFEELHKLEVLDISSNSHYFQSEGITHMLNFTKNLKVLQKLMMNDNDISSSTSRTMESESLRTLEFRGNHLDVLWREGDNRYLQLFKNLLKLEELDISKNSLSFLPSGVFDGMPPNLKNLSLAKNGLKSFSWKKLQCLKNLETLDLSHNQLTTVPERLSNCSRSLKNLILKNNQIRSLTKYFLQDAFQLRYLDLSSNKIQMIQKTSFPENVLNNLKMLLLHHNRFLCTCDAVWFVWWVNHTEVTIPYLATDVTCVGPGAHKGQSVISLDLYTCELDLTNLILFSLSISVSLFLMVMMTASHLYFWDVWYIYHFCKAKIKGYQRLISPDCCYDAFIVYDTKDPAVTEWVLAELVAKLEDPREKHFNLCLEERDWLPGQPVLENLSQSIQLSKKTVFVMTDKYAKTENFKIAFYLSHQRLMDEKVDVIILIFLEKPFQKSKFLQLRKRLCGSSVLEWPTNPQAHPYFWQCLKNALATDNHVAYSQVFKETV
How it was run: (§1)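 HEK-Blue cells overexpressing human TLR7, TLR8 or TLR9 (NF-κB/AP-1-driven SEAP) pre-treated 30 min at room temperature with compound (0.05 nM–50 μM), then stimulated with gardiquimod 7.5 μM (TLR7), R848 15.9 μM (TLR8) or ODN2006 5 nM (TLR9). SEAP read colorimetrically after 22 h at 37 °C; % inhibition calculated.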

human TLR9 = biological target: T2, human TLR9 (Homo sapiens, UniProt Q9NR96); experiment: TLR9 inhibition reporter assay (HEK-Blue cells, SEAP reporter, ODN2006 stimulation); conditions: HEK-Blue cells overexpressing human TLR9, SEAP reporter, ODN2006 5 nM
T2 construct: host or cells: HEK-Blue cells (HEK293-derived reporter line)
T2 sequence (Q9NR96 26-1032): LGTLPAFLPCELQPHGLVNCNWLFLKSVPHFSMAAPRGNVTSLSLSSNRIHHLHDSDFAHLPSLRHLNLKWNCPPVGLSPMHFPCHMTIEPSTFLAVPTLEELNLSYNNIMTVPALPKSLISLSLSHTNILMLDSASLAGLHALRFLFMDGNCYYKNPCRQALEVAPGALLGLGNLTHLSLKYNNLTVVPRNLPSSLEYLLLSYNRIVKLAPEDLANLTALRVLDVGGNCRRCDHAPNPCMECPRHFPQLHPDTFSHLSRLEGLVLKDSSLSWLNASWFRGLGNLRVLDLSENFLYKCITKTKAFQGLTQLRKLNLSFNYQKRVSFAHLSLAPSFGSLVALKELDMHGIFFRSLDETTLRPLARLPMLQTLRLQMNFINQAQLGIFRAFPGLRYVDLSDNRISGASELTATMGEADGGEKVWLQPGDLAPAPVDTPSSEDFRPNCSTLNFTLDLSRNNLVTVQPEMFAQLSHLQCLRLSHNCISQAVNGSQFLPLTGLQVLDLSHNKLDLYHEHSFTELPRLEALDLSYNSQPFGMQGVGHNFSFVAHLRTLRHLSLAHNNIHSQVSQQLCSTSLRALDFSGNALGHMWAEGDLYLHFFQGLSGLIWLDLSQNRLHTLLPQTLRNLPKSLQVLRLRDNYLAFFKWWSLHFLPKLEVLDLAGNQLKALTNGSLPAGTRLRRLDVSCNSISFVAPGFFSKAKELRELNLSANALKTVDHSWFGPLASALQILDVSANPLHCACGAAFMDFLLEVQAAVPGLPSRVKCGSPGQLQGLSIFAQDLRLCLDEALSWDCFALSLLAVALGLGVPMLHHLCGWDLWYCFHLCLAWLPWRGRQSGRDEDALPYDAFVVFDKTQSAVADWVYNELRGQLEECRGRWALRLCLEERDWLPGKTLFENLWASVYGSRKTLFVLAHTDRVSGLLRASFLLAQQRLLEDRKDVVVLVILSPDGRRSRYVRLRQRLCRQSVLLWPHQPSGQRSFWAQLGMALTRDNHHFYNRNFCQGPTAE
How it was run: as §1

human TLR8 = biological target: T3, human TLR8 (Homo sapiens, UniProt Q9NR97); experiment: TLR8 inhibition reporter assay (HEK-Blue cells, SEAP reporter, R848 stimulation); conditions: HEK-Blue cells overexpressing human TLR8, SEAP reporter, R848 15.9 μM
T3 construct: host or cells: HEK-Blue cells (HEK293-derived reporter line)
T3 sequence (Q9NR97 27-1041): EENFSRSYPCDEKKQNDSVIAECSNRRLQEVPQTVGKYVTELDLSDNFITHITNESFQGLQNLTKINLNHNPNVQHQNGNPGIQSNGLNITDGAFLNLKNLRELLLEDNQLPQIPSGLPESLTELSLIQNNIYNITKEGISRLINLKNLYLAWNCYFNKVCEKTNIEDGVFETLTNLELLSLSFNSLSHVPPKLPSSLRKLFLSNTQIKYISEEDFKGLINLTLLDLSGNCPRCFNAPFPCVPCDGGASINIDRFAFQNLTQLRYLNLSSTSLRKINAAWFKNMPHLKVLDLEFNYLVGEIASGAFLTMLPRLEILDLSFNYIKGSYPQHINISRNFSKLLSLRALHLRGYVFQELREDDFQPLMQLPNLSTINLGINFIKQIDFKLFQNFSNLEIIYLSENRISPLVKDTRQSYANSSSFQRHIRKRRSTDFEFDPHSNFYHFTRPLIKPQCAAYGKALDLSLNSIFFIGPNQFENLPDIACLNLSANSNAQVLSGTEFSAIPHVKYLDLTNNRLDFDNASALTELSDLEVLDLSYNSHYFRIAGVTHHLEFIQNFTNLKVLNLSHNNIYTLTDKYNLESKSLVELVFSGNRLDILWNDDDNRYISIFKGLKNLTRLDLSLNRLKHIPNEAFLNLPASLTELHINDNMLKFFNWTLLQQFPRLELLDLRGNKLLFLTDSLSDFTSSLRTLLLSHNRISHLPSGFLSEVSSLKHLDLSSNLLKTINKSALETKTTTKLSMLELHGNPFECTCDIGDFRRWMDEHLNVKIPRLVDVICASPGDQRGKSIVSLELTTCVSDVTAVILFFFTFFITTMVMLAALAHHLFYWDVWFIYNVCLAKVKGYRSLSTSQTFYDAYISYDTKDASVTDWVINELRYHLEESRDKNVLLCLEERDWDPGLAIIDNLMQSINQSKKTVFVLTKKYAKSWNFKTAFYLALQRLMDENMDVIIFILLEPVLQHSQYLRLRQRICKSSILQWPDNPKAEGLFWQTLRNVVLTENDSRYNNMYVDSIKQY
How it was run: as §1

SMILES	IC50 (human TLR7) [nM]	IC50 (human TLR9) [nM]	IC50 (human TLR8) [nM]
CCc1c(-c2ccc3ncc(C#N)n3n2)[nH]c2ccc(C3CCNCC3)cc12 [Example 102, 6-(3-ethyl-5-(piperidin-4-yl)-1H-indol-2-yl)imidazo [1,2-b]pyridazine-3-carbonitrile]	1000 to 50000	1000 to 50000	1000 to 50000
Cc1cc2nc(-c3[nH]c4ccc(C5CCNCC5)cc4c3C(C)C)c(F)cn2n1 [Example 148, 6-fluoro-5-(3-isopropyl-5-(piperidin-4-yl)-1H-indol-2-yl)-2-methylpyrazolo[1,5-a]pyrimidine]	< 100	1000 to 50000	100 to 1000
CNC(=O)CN1CCC(c2ccc3[nH]c(-c4ccc(C#N)c5ncccc45)c(C(C)C)c3c2)CC1 [Example 371, 2-(4-(2-(8-cyanoquinolin-5-yl)-3-isopropyl-1H-indol-5-yl)piperidin-1-yl)-N-methylacetamide]	< 100	1000 to 50000	< 100
CNCCN1CCC(c2ccc3[nH]c(-c4ccnc5[nH]ccc45)c(C)c3c2)CC1 [Example 668, N-methyl-2-(4-(3-methyl-2-(1H-pyrrolo[2,3-b]pyridin-4-yl)-1H-indol-5-yl)piperidin-1-yl)ethan-1-amine]	100 to 1000	100 to 1000	< 100
CC(C)c1c(-c2ccc(C#N)c3ncccc23)[nH]c2ccc(C3CCN(CC(C)(C)O)CC3)cc12 [Example 766, 5-(5-(1-(2-hydroxy-2-methylpropyl)piperidin-4-yl)-3-isopropyl-1H-indol-2-yl)quinoline-8-carbonitrile]	< 100	1000 to 50000	< 100
Cc1cccc2cc(CN3CCC(c4ccc5[nH]c(-c6ccnc7[nH]ncc67)c(C(C)C)c5c4)CC3)c(Cl)nc12 [Example 922, 2-chloro-3-((4-(3-isopropyl-2-(1H-pyrazolo[3,4-b]pyridin-4-yl)-1H-indol-5-yl)piperidin-1-yl)methyl)-8-methylquinoline]	1000 to 50000	1000 to 50000	1000 to 50000
CC(C)c1c(-c2cnc3ccnn3c2)[nH]c2ccc(C3CCN(CC(=O)N(C)C)CC3)cc12 [Example 359, 2-(4-(3-isopropyl-2-(pyrazolo[1,5-a]pyrimidin-6-yl)-1H-indol-5-yl)piperidin-1-yl)-N,N-dimethylacetamide]	1000 to 50000	1000 to 50000	> 3130
CC(C)c1c(-c2cc(CO)c3nccn3c2)[nH]c2ccc(C3CCNCC3)cc12 [Example 124, (6-(3-isopropyl-5-(piperidin-4-yl)-1H-indol-2-yl)imidazo[1,2-a]pyridin-8-yl)methanol]	< 100	100 to 1000	< 100
CNCCN1CCC(c2ccc3[nH]c(-c4ccnc5[nH]ncc45)c(C(C)C)c3c2)C(F)C1 (stereo not drawn) [Example 678, 2-(3-fluoro-4-(3-isopropyl-2-(1H-pyrazolo[3,4-b]pyridin-4-yl)-1H-indol-5-yl)piperidin-1-yl)-N-methylethan-1-amine]	100 to 1000	1000 to 50000	< 100
CN1CC(C(=O)N2CCC(c3ccc4[nH]c(-c5ccc6nccn6c5)c(CC(F)F)c4c3)CC2)CC1=O (stereo not drawn) [Example 644, 4-(4-(3-(2,2-difluoroethyl)-2-(imidazo[1,2-a]pyridin-6-yl)-1H-indol-5-yl)piperidine-1-carbonyl)-1-methylpyrrolidin-2-one]	100 to 1000	> 50000	1000 to 50000
CC(C)c1c(-c2cn(C)c3ncncc23)[nH]c2ccc(C3CCN(C4CCOCC4)CC3)cc12 [Example 688, 5-(3-isopropyl-5-(1-(tetrahydro-2H-pyran-4-yl)piperidin-4-yl)-1H-indol-2-yl)-7-methyl-7H-pyrrolo[2,3-d]pyrimidine]	< 100	1000 to 50000	< 100
Cc1cc(-c2[nH]c3ccc(C4CCN(C(=O)CN(C)C)CC4)cc3c2C(C)C)cc2cccnc12 [Example 529, 2-(dimethylamino)-1-(4-(3-isopropyl-2-(8-methylquinolin-6-yl)-1H-indol-5-yl)piperidin-1-yl) ethan-1-one]	< 100	1000 to 50000	< 100
Cc1cc(-c2[nH]c3ccc(C4CCN(CC(N)=O)CC4)cc3c2C(C)C)cc2cnnn12 [Example 321, 2-(4-(3-isopropyl-2-(7-methyl-[1,2,3]triazolo[1,5-a]pyridin-5-yl)-1H-indol-5-yl)piperidin-1-yl)acetamide]	< 100	1000 to 50000	< 100
CNCC(=O)N1CCC(c2ccc3[nH]c(-c4cn5ccnc5c(C)c4C)c(C(C)C)c3c2)CC1 [Example 548, 1-(4-(2-(7,8-dimethylimidazo[1,2-a]pyridin-6-yl)-3-isopropyl-1H-indol-5-yl)piperidin-1-yl)-2-(methylamino)ethan-1-one]	< 100	100 to 1000	100 to 1000
